Data on 41 molecules can be found in patent publication US8679514B2, “Fungicidal mixtures based on azolopyrimidinylamines” (BASF SE, priority 2005, dated 2014).

For assay [1], the system named is Phytophthora infestans. Kind of assay: whole plant or invertebrate. It is filed as in vivo. The conditions noted are these: 144 h, read-out: Efficacy in % of the untreated control.
For a further assay, the system named is Pyricularia oryzae. Kind of assay: microbe, parasite or virus in culture. It is filed as cell-based. As to conditions: for inhibition at 63 µg/mL / inhibition at 0.25 µg/mL / inhibition at 1 µg/mL / inhibition at 4 µg/mL / inhibition at 16 µg/mL: Pyricularia oryzae, read-out: Observed activity (%).
In assay [2] the test system is Phytophthora infestans. Kind of assay: microbe, parasite or virus in culture. Type of assay: cell-based.
A further assay relates to Botrytis cinerea. Kind of assay: Activity against the gray mold pathogen Botrytis cinerea in the microtiter test. It is filed as cell-based. As to conditions: single active compound; for inhibition at 0.25 µg/mL: Conc. 0.25 mg/l; for inhibition at 1 µg/mL: Conc. 1 mg/l; for inhibition at […]: Conc. 0.063 mg/l.
Setting [3] is: Phytophthora infestans, read-out: Observed activity (%).
Where [4] appears, read: Botrytis cinerea, read-out: Observed activity (%).

`COCC(=O)N(c1c(C)cccc1C)C(C)C(=O)OC` (racemic) [metalaxyl, methyl N-(methoxyacetyl)-N-(2,6-xylyl)-DL-alaninate, reference compound]: in the assay with Phytophthora infestans [1], the pest or weed control at 16 ppm was 33% and the pest or weed control at 63 ppm is 56%. Further, the inhibition at 63 µg/mL with Pyricularia oryzae was found to be 2%. For the same molecule, in the assay with Phytophthora infestans [2] (setting [3]), the inhibition at 1 µg/mL came to 6% and the inhibition at 4 µg/mL was found to be 9%.
Take `Cc1nc2ncnn2c(N)c1-c1ccc(Cl)c(Cl)c1` [Compound I-9, 6-(3,4-dichlorophenyl)-5-methyl-[1,2,4]triazolo[1,5-a]pyrimidin-7-ylamine]: the inhibition at 0.25 µg/mL with Botrytis cinerea (setting [4]) was 8%. In the assay with Pyricularia oryzae, the inhibition at 0.25 µg/mL stood at 7% and the inhibition at 1 µg/mL was determined as 13%. Also, in the assay with Phytophthora infestans [2] (setting [3]), the inhibition at 0.016 µg/mL was found to be 1%, the inhibition at 0.25 µg/mL came out at 7% and the inhibition at […] was 6%.
In the case of `CCCCCCCCc1c(C(F)(F)F)nc2ncnn2c1N` [Compound I-98, 6-octyl-5-trifluoromethyl-[1,2,4]triazolo[1,5-a]pyrimidin-7-ylamine], in the assay with Botrytis cinerea (setting [4]), the inhibition at 0.25 µg/mL came to 4% and the inhibition at 1 µg/mL was 5%. In the assay with Pyricularia oryzae, the inhibition at 0.25 µg/mL stood at 0%, the inhibition at 1 µg/mL turned out to be 0%, the inhibition at 4 µg/mL was found to be 15% and the inhibition at 16 µg/mL was 43%. In addition, in the assay on Phytophthora infestans [2] (setting [3]), the inhibition at 0.25 µg/mL was 6%, the inhibition at 1 µg/mL amounted to 16%, the inhibition at 4 µg/mL is 22% and the inhibition at […] came to 5%.
Consider `CC(CCc1c(C(F)(F)F)nc2ncnn2c1N)CC(C)(C)C` (centres unmarked) [Compound I-101, 5-trifluoromethyl-6-(3,5,5-trimethylhexyl)-[1,2,4]triazolo[1,5-a]pyrimidin-7-ylamine], for which the inhibition at 1 µg/mL with Botrytis cinerea (setting [4]) was 1%. In the assay on Pyricularia oryzae, the inhibition at 1 µg/mL stood at 15%, the inhibition at 4 µg/mL was 16% and the inhibition at 16 µg/mL is 25%. In addition, in the assay with Phytophthora infestans [2] (setting [3]), the inhibition at 0.25 µg/mL is 3% and the inhibition at 4 µg/mL is 9%.
`CCc1nc2ncnn2c(N)c1CCC(C)CC(C)(C)C` (centres unmarked) [Compound I-113, 5-ethyl-6-(3,5,5-trimethylhexyl)-[1,2,4]triazolo[1,5-a]pyrimidin-7-ylamine]: the pest or weed control at 16 ppm with Phytophthora infestans [1] is 22%. In addition, the inhibition at 4 µg/mL in the assay with Pyricularia oryzae is 7%. In the assay on Phytophthora infestans [2] (setting [3]), the inhibition at 0.25 µg/mL was 3% and the inhibition at 4 µg/mL stood at 36%.
Take `CCCCCCCCc1nc2ncnn2c(N)c1CC` [Compound I-290, 6-ethyl-5-octyl-[1,2,4]triazolo[1,5-a]pyrimidin-7-ylamine]: in the assay on Botrytis cinerea (setting [4]), the inhibition at 1 µg/mL was 4%. In the assay on Phytophthora infestans [2] (setting [3]), the inhibition at 0.25 µg/mL amounted to 0%, the inhibition at 4 µg/mL amounted to 3% and the inhibition at […] amounted to 0%.
As to `O=S(=O)([O-])[O-].[Cu+2]` [CuSO4, reference compound], the “Observed activity (%)” value with Botrytis cinerea (Conc. 63 mg/l) and in the assay on Pyricularia oryzae was 0% throughout.
Take `CC1CCN(c2c(-c3c(F)cc(F)cc3F)c(Cl)nc3ncnn23)CC1` [[D-8], 5-chloro-7-(4-methylpiperidin-1-yl)-6-(2,4,6-trifluorophenyl)-[1,2,4]triazolo[1,5-a]pyrimidine, reference compound]: the inhibition at 1 µg/mL with Phytophthora infestans [2] (setting [3]) came out at 43%.
On to `CO/C=C(/C(=O)OC)c1ccccc1Oc1cc(Oc2ccccc2C#N)ncn1` [azoxystrobin], for which the “Observed activity (%)” value with Phytophthora infestans [2] stood at 21%.
For the molecule `COC(=O)C(C)N(C(=O)Cc1ccccc1)c1c(C)cccc1C` (centres unmarked) [benalaxyl], the inhibition at 4 µg/mL in the assay on Phytophthora infestans [2] (setting [3]) is 13%.
In the case of `O=C(Nc1ccccc1-c1ccc(Cl)cc1)c1cccnc1Cl` [boscalid], the inhibition at 63 µg/mL with Pyricularia oryzae was 12%. In the assay with Phytophthora infestans [2] (setting [3]), the inhibition at 1 µg/mL was 2% and the inhibition at 4 µg/mL was determined as 17%.
For the molecule `O=C1C2CC=CCC2C(=O)N1SC(Cl)(Cl)Cl` (centres unmarked) [captan, 2-trichloromethylsulfanyl-3a,4,7,7a-tetrahydroisoindole-1,3-dione, reference compound], the inhibition at 1 µg/mL in the assay on Pyricularia oryzae came to 44%; with Phytophthora infestans [2] (setting [3]), 12%.
For the molecule `COC(=O)Nc1nc2ccccc2[nH]1` [carbendazim], in the assay on Pyricularia oryzae, the inhibition at 0.25 µg/mL came out at 20%.
With `N#Cc1c(Cl)c(Cl)c(Cl)c(C#N)c1Cl` [chlorothalonil], in the assay with Botrytis cinerea (setting [4]), the inhibition at 1 µg/mL came out at 55%.
Regarding `Cc1ccc(-c2c(Cl)nc(C#N)n2S(=O)(=O)N(C)C)cc1` [cyazofamid, 4-chloro-2-cyano-N,N-dimethyl-5-(4-methylphenyl)-1H-imidazole-1-sulfon-amide, reference compound], the pest or weed control at 4 ppm in the assay on Phytophthora infestans [1] turned out to be 33%. The inhibition at 4 µg/mL in the assay on Pyricularia oryzae worked out at 23%.
`CC(C1CC1)C(O)(Cn1cncn1)c1ccc(Cl)cc1` (centres unmarked) [cyproconazole]: the values for the inhibition at 4 µg/mL with Pyricularia oryzae and in the assay on Phytophthora infestans [2] (setting [3]) were 54% and 9%, respectively.
Regarding `Cc1cc(C2CC2)nc(Nc2ccccc2)n1` [cyprodinil], in the assay with Phytophthora infestans [2] (setting [3]), the inhibition at 4 µg/mL came to 10%.
Still for that read-out and setting: as for `CC1COC(Cn2cncn2)(c2ccc(Oc3ccc(Cl)cc3)cc2Cl)O1` (centres unmarked) [difenoconazole], the figure is 24%.
For the molecule `CC1CN(C2CCCCCCCCCCC2)CC(C)O1` (centres unmarked) [dodemorph], the inhibition at 16 µg/mL in the assay with Pyricularia oryzae was 72%.
Regarding `CO/C=C(/C(=O)OC)c1ccccc1CO/N=C(C)/C=C/c1ccc(Cl)cc1` [enestroburin], the “Observed activity (%)” value in the assay on Phytophthora infestans [2] is 35%.
As to `CSC1=N[C@@](C)(c2ccccc2)C(=O)N1Nc1ccccc1` [fenamidone], the inhibition at […] in the assay with Phytophthora infestans [2] (setting [3]) was determined as 40%.
As for `O=[N+]([O-])c1cc(C(F)(F)F)c(Cl)c([N+](=O)[O-])c1Nc1ncc(C(F)(F)F)cc1Cl` [fluazinam], the inhibition at […] with Botrytis cinerea (setting [4]) amounted to 50%. The inhibition at 0.25 µg/mL in the assay with Phytophthora infestans [2] (setting [3]) was determined as 9%.
Regarding `CC(C)OC(=O)N[C@H](C(=O)N[C@H](C)c1nc2ccc(F)cc2s1)C(C)C` [flubenthiavalicarb], in the assay with Phytophthora infestans [2], the “Observed activity (%)” value is 68%.
As to `CO/N=C(/C1=NOCCO1)c1ccccc1Oc1ncnc(Oc2ccccc2Cl)c1F` [fluoxastrobin], in the assay with Phytophthora infestans [2] (setting [3]), the inhibition at 0.025 µg/mL came out at 2% and the inhibition at […] stood at 1%.
For `O=c1c2cc(F)ccc2nc(-n2cncn2)n1-c1ccc(Cl)cc1Cl` [fluquinconazole, 3-(2,4-dichlorophenyl)-6-fluoro-2-[1,2,4]-triazol-1-yl-3H-quinazolin-4-one, reference compound], the inhibition at […] in the assay with Botrytis cinerea (setting [4]) is 22%. Also, the inhibition at 4 µg/mL in the assay on Pyricularia oryzae amounted to 0%. Moreover, in the assay with Phytophthora infestans [2] (setting [3]), the inhibition at 1 µg/mL was determined as 0% and the inhibition at 4 µg/mL amounted to 0%.
For `C[Si](Cn1cncn1)(c1ccc(F)cc1)c1ccc(F)cc1` [flusilazole], in the assay with Botrytis cinerea (setting [4]), the inhibition at 0.25 µg/mL turned out to be 43%. For the same molecule, in the assay on Phytophthora infestans [2] (setting [3]), the inhibition at 1 µg/mL was 0% and the inhibition at 4 µg/mL was determined as 11%.
Regarding `O=C1c2ccccc2C(=O)N1SC(Cl)(Cl)Cl` [folpet], the inhibition at 1 µg/mL was 2% in the assay with Botrytis cinerea (setting [4]) and 6% in the assay with Phytophthora infestans [2] (setting [3]).
As for `CC(C)NC(=O)N1CC(=O)N(c2cc(Cl)cc(Cl)c2)C1=O` [iprodione, N-isopropyl-3-(3,5-dichlorophenyl)-2,4-dioxoimidazolidine-1-carboxamide, reference compound], the inhibition at 4 µg/mL with Pyricularia oryzae is 46%.
Turning to `COc1cc(C)c(C(=O)c2c(OC)ccc(Br)c2C)c(OC)c1OC` [metrafenone, 3′-bromo-2,3,4,6′-tetramethoxy-2′,6-dimethylbenzophenone, reference compound], the inhibition at 63 µg/mL in the assay on Pyricularia oryzae turned out to be 42%. Besides, the inhibition at 4 µg/mL in the assay with Phytophthora infestans [2] (setting [3]) stood at 2%.
Regarding `Cc1cccc(C)c1N(C(=O)CCl)C1CCOC1=O` (centres unmarked) [ofurace], in the assay on Phytophthora infestans [2] (setting [3]), the inhibition at 4 µg/mL was determined as 0% and the inhibition at 16 µg/mL amounted to 19%.
On to `COCC(=O)N(c1c(C)cccc1C)N1CCOC1=O` [oxadixyl], for which, in the assay on Phytophthora infestans [2] (setting [3]), the inhibition at 1 µg/mL came to 0%, the inhibition at 4 µg/mL was determined as 2% and the inhibition at 16 µg/mL was 17%.
As to `CCCN(CCOc1c(Cl)cc(Cl)cc1Cl)C(=O)n1ccnc1` [prochloraz], the inhibition at 16 µg/mL with Phytophthora infestans [2] (setting [3]) came out at 6%.
`CCCC1COC(Cn2cncn2)(c2ccc(Cl)cc2Cl)O1` (centres unmarked) [propiconazole]: in the assay on Phytophthora infestans [2] (setting [3]), the inhibition at 1 µg/mL stood at 1%, the inhibition at 4 µg/mL came out at 11% and the inhibition at 16 µg/mL was 12%.
`OC(Cc1ccccc1Cl)(Cn1nc[nH]c1=S)C1(Cl)CC1` (centres unmarked) [prothioconazole, 2-[2-(1-chlorocyclopropyl)-3-(2-chlorophenyl)-2-hydroxypropyl]-2,4-dihydro-[1,2,4]triazole-3-thione, reference compound]: the inhibition at 4 µg/mL with Botrytis cinerea (Botrytis cinerea, Conc. 4 mg/l, read-out: Observed activity (%)) worked out at 48%; in the assay with Pyricularia oryzae, 11%.
Take `COC(=O)N(OC)c1ccccc1COc1ccn(-c2ccc(Cl)cc2)n1` [pyraclostrobin]: in the assay on Phytophthora infestans [2] (setting [3]), the inhibition at 0.016 µg/mL turned out to be 14% and the inhibition at […] came to 59%.
Take `CC(C)(C)C(O)(CCc1ccc(Cl)cc1)Cn1cncn1` (centres unmarked) [tebuconazole]: the inhibition at 0.25 µg/mL in the assay with Botrytis cinerea (setting [4]) is 50%. In the assay on Phytophthora infestans [2] (setting [3]), the inhibition at 1 µg/mL was found to be 8%, the inhibition at 4 µg/mL amounted to 10% and the inhibition at 16 µg/mL turned out to be 9%.
Regarding `COC(=O)NC(=S)Nc1ccccc1NC(=S)NC(=O)OC` [thiophanate-methyl], in the assay with Botrytis cinerea (setting [4]), the inhibition at 0.25 µg/mL worked out at 12%.
With `CON=C(C(=O)OC)c1ccccc1CON=C(C)c1cccc(C(F)(F)F)c1` [trifloxystrobin], in the assay with Phytophthora infestans [2] (setting [3]), the inhibition at 0.25 µg/mL was determined as 33% and the inhibition at 1 µg/mL is 46%.
Consider `C=CC1(C)OC(=O)N(c2cc(Cl)cc(Cl)c2)C1=O` (centres unmarked) [vinclozolin], for which the inhibition at 1 µg/mL with Botrytis cinerea (setting [4]) is 21%. Also, in the assay on Phytophthora infestans [2] (setting [3]), the inhibition at 16 µg/mL was determined as 0%.
With maneb, the figures for the “Observed activity (%)” value in the assay on Pyricularia oryzae and in the assay with Phytophthora infestans [2] were 32% and 6%, respectively.
As to “zinc ammoniate ethylenebis(dithiocarbamate) [metiram, reference compound]”, the “Observed activity (%)” value in the assay with Pyricularia oryzae is reported as 26%.
